# Earlier results as cited in US8785725B2, “Method for generating resistance against citrus diseases caused by insects, fungi, oomycetes, bacteria or nematodes” (Institute Valenciano de Investigaciones Agrarias, priority 2009, dated 2014).
smiles,measurement,setting,value
"C=C(C)C1CC=C(C)CC1 (stereo not drawn) [d-limonene, 1-methyl-4-(1-methylethenyl)cyclohexene]",miscibility with alcohol,alcohol,miscible with alcohol
same,solubility in water,water,insoluble in water
